Results published in patent EP0064445A1, “N-substituted 2,4-dialkoxybenzene sulfon amides” (CHOAY S.A., priority 1981, dated 1982).

These compounds were tested on souris SWISS (assay: Interaction with pentobarbital: pentobarbital sleep time in mice). Conditions: male SWISS mice, lots of 10; 200 mg/kg oral, 60 min before pentobarbital 40 mg/kg i.p.
Type: in vivo
Source text: Les essais sont réalisés sur des souris SWISS, EOPS de sexe mâle, pesant de 20 à 24 g, en provenance du centre d'élevage de LE GENEST.
Les animaux sont acclimatés au moins 8 jours à l'animalerie du laboratoire avant les essais.
Les lots sont de 10 souris par test et par produit.
A titre de produits de référence, pour effectuer les essais témoins, on a utilisé les trois substances suivantes : • - N-[(éthyl-1 pyrrolidinyl-2) méthy17méthoxy-2 sulfamoyl-5 benzamide connue sous la désignation sulpiride; • - N-[(éthyl-1 pyrrolidinyl-2)méthy17méthoxy-2 éthylsulfonyl-5 benzamide connue sous la désignation sultopride; • - N-(diéthylamino-2 éthyl) méthoxy-2 méthylsulfonyl-5 benzamide connue sous la désignation tiapride.
Les composés selon l'invention et les substances de référence sont administrés en suspension aqueuse dans l'eau ordinaire à 3% en gomme arabique pour la voie orale (tests d'interactions avec les barbituriques).
Le réactif pharmacologique à savoir le pentobarbital est administré en solution dans du soluté isotonique de NaCl.
Les volumes administrés sont de 0,5 ml d'une solution à 1,6 g/1 pour 20 g de poids corporel par voie intrapérito- néale (40 mg/kg).
Pour effectuer ces essais, on administre à des lots de 10 souris SWISS mâles les composés selon l'invention ou les produits de référence (à savoir sulpiride, sultopride ou tiapride) par voie orale à raison de 200 mg/kg. 60 minutes après l'ingestion des composés selon l'invention ou des produits de référence, on administre aux animaux le pentobarbital sous forme sodique tel que celui commercialisé sous la marque NEMBUTAL. On mesure ensuite : • - le temps d'endormissement, • - le temps de sommeil, et on détermine le paurcentage de variations en plus ou en moins du temps de sommeil. Les résultats de ces essais figurent dans le tableau II suivant.

SMILES	Temps de sommeil (pentobarbital) [mn]
COc1cc(OC)c(S(=O)(=O)NCCN2CCCC2)cc1Br [Produit 926]	168 ± 30
COc1cc(OC)c(S(=O)(=O)NCCN2CCOCC2)cc1Cl [Produit 884]	150 ± 24
COc1cc(OC)c(S(=O)(=O)NCCN2CCCC2)cc1Cl [Produit 882]	176 ± 21
COc1cc(OC)c(S(=O)(=O)NCCCN2CCCCC2)cc1Br [Produit 932]	142 ± 15
COc1cc(OC)c(S(=O)(=O)NCCN2CCCCC2)cc1Cl [Produit 883]	176 ± 12
COc1cc(OC)c(S(=O)(=O)NCCN2CCOCC2)cc1Br [Produit 928]	165 ± 24
COc1cc(OC)c(S(=O)(=O)NCCCN2CCOCC2)cc1Br [Produit 933]	180 ± 32
COc1cc(OC)c(S(=O)(=O)NCCCN2CCCCC2)cc1Cl [Produit 888]	140 ± 20
COc1cc(OC)c(S(=O)(=O)NCCCN2CCOCC2)cc1Cl [Produit 889]	156 ± 15
COc1cc(OC)c(S(=O)(=O)NCCN2CCCCC2)cc1Br [Produit 927]	169 ± 26

Same assay, conditions: result in words; 200 mg/kg oral, mice

SMILES	effet sur le sommeil au pentobarbital
CCN1CCCC1CNC(=O)c1cc(S(N)(=O)=O)ccc1OC (stereo not shown) [sulpiride, reference compound]	tantôt potentialisateur, tantôt antagoniste
CCN1CCCC1CNC(=O)c1cc(S(=O)(=O)CC)ccc1OC (stereo not shown) [sultopride, reference compound]	potentialisateurs
CCN(CC)CCNC(=O)c1cc(S(C)(=O)=O)ccc1OC [tiapride, N-(diéthylamino-2 éthyl) méthoxy-2 méthylsulfonyl-5 benzamide, reference compound]	potentialisateurs
